Laboratory results from patent US5212072A, “Polypeptides complementary to peptides or proteins having an amino acid sequence or nucleotide coding sequence at least partially known and methods of design therefor” (Board of Regents, The University of Texas System, priority 1991, dated 1993).
Blank lines part the entries; values can stand above or below the compound they belong to. Where no end group is shown, it is not given here.

Assays:
bovine gamma-endorphin = target: T1, bovine gamma-endorphin (Bos taurus, UniProt P01190); experiment: ELISA binding of gamma-endorphin to coated wells; conditions: gamma-odne 40 ug/well vs insulin or BSA; absorbance 405 nm; FIG. 7
T1 construct: purchased Boehringer Mannheim (Indianapolis, Ind.); host or cells: chemical synthesis
Procedure: Synthetic bovine gamma-endorphin was obtained from Boehringer Mannheim (Indianapolis, Ind.) and rabbit antibody for synthetic gamma-endo was obtained from Accurate Biochemicals (Westbury, N.Y.).
The wells of a 96-well round-bottomed microtiter plate were coated (by the procedure described in Example 1B) with gamma-odne (40 ug/well), insulin (20U/well) or bovine serum albumin (BSA,200 ug/well . Varying concentrations of gamma-endorphin (as shown on the abscissa in FIG. 7) were incubated in the coated wells for 1 hr, after which the plates were thrice washed with PBS-Tween buffer. The wells were then treated with rabbit antibody for gamma-endorphin, washed, and then treated with goat antibody against rabbit immunoglobulin the goat antibody being conjugated to alkaline phosphatase. After washing away unbound goat antibody conjugate, the bound alkaline phosphatase activity was measured with p-nitrophenylphosphate as earlier described. The results of the above manipulations are shown in FIG. 7 where the extent of absorbance at 405 nm reflects the degree of gamma-endorphin binding to wells coated with gamma-odne, insulin or BSA. […] The shaded area in FIG. 7 represents the extent of gamma-endorphin binding in the presence of soluble excess of gamma-odne. Thus it is shown that a second pair of complementary peptides interacts in a manner showing affinity and apparent congruence.

[1] = test system: opiate receptors on NG108-15 cells; experiment: Inhibition of 125I-beta-endorphin binding to NG108-15 cells; conditions: 125I-beta-endorphin 10^-11 M
Excerpt: NG108-15 cells are known to contain receptors for beta-endorphin called opiate receptors. In addition to beta-endorphin, gamma-endorphin and several analogs of beta-endorphin bind to these opiate receptors. The peptide, gamma-ODNE, complementary to gamma-endorphin described in Example II was examined for its ability to inhibit the binding of ^125 I-beta-endorphin to opiate receptors on NG108-15 cells. Gamma-endorphin is a fragment of the larger peptide beta-endorphin.
Seventy percent of the total binding was specific by conventional criteria.
For this experiment, ^1251 -beta-endorphin was preincubated 30 minutes with various amounts of the complementary peptide, gamma-ODNE, before a 30 minute (37° C.) incubation with NG108-15 cells in microtiter wells. After the incubation, cells were washed 3 times and cell associated radioactivity wad determined with a Packard Multi-Prias gamma counter.

female ICR mice = experiment: Induction of catatonia in mice by i.c. injection of serum; assay type: in vivo; conditions: simultaneous i.c. injection 0.2 mg
Excerpt: It is well known that large doses of opiate-like substances can induce a catatonic state in animals which is inhibited or reversed by treatment with the opiate antagonist naloxone. In analogy with the results in earlier examples, the ability of a peptide (qamma-ODNE) complementary to an opiate peptide, qamma-endorphin, to induce antibodies that have opiate properties was examined.
Gamma-ODNE (Example II) was conjugated to Keyhole Limpet Hemocyanin ([…]) and used with Freund's adjuvant to generate rabbit antibodies in a conventional manner (see Example 1F). Both normal and induced rabbit sera were injected intracerebroventicularly (i.c.) into female ICR mice.

[2] = target: T2, mouse adrenal tumor cell ACTH receptor (Mus musculus, UniProt Q64326); experiment: Glucocorticoid hormone production by mouse adrenal tumor (Y-1) cells; assay type: cell-based; conditions: ACTH 10 microunits/well, 18 hrs
T2 construct: Duplicate cultures of mouse adrenal tumor (Y-1) cells in microtiter plates; endogenous in cells; host or cells: mouse adrenal tumor (Y-1) cells
T2 sequence (Q64326 whole entry): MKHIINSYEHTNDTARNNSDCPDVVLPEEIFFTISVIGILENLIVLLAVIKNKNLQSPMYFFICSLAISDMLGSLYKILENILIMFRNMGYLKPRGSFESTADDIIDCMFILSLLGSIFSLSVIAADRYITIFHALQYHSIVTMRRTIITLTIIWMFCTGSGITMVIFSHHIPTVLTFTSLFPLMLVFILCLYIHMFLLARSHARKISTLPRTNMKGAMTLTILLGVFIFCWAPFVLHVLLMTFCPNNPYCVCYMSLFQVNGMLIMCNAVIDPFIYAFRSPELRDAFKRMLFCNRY
T2 sequence (Q9D159 whole entry partner): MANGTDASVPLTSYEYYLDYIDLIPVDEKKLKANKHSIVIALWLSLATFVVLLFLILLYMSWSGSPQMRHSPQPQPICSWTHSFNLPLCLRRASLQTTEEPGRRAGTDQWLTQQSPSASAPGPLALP
Procedure: An induction of glucocorticoid hormone production by ACTH and anti-HTCA was found with cultured mammalian cells. Duplicate cultures of mouse adrenal tumor (Y-1) cells in microtiter plates were treated with culture media, ACTH (10 microunits/well) or various dilutions of the anti-HTCA.
^a Duplicate cultures of mouse adrenal (Y1) cells in microtiter plate
were treated with culture media, ACTH (10 microunits/well) or the
indicated dilutions of antibody to HTCA. After 18 hrs incubation at
37° in 4% CO2, replicate cultures were pooled and assayed for
glucocorticoid hormone production by a radioimmunoassay (RIA) for […]

[3] = test system: mouse adrenal tumor (Y-1) cells; experiment: Binding of anti-HTCA to affixed mouse adrenal tumor (Y-1) cells; conditions: absorbency at 405 nM; FIG. 5
Procedure: Mouse adrenal tumor (Y-1) cells were affixed by glutaraldehyde in flat bottom wells of a microtiter plate. The affixed cells were then treated with rabbit anti-KLH or rabbit anti-HTCA alone or in the presence of several levels of ACTH. After washing, the microtiter wells were treated with goat antibody to rabbit immunoglobulin the goat antibody being coupled to the enzyme alkaline phosphatase. After washing away unbound antibody-phosphatase complex, p-nitrophenyl phosphate was added and the enzyme dependent development of absorbency at 405 nM was monitored. […] ACTH and anti-HTCA appeared competitive for the same binding site on the mouse adrenal tumor (Y-1) cells. Rabbit anti KLH had no effect (shaded region)

HTCA = experiment: Solid phase radiobinding assay for serum ACTH on HTCA-coated wells; assay type: binding; conditions: for Log10 Dilution at 50% inhibition: graphic interpolation
HTCA, sequence (as listed by the source): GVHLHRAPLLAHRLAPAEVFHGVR
Procedure: Complementary peptide (HTCA) was dissolved in phosphate buffered saline (PBS) at 1 mg/ml and 200 ul aliquots were placed in wells of a 96 well polyvinyl assay plate (Microtest III, Falcon Cat. #3911). HTCA was allowed to coat the wells overnight at 4° C. The coating solution was removed and the wells were washed three times with PBS. Radiolabeled ACTH (^125 I-ACTH, New England Nuclear NEX-65) was diluted into PBS containing 0.0005% TWEEN-20 so as to deliver 50 pg (or about 30,000 cpm) in a 20 ul volume.
Serum samples were prepared in a 96 well tissue culture plate by serial dilution of serum into PBS/TWEEN 20 to give a final volume of 180 ul/well. The serum samples were then transferred to the HTCA coated a ssay plate and allowed to incubate. Finally, 20 ul of ^125 I-ACTH solution was added, incubated, and the total sample of 200 ul was removed. After washing three times with PBS, the wells were cut from the plate and counted in a gamma counter.
Serum samples used in this study contained either 50 pg/ml or 500 pg/ml of ACTH added to fetal calf serum (FCS).

Compound: QRDKGRLALLGGHEPAV [gamma-odne, H2 N--gln--arg--asp--lys--gly--arg--leu--ala--leu--leu--gly--gly--his--glu--pro--ala--val--COOH]
gamma-endorphin binding to coated wells (in words) (bovine gamma-endorphin): significantly bound
% Inhibition of Specific 125I-beta-endorphin ([1]; 10^-4 M): 75.0 ± 0.6%
% Inhibition of Specific 125I-beta-endorphin ([1]; 10^-5 M): 36.0 ± 2.1%
% Inhibition of Specific 125I-beta-endorphin ([1]; 10^-6 M, 30 min preincubation): 24.7 ± 3.9%

Compound: C=CCN1CC[C@]23c4c5ccc(O)c4O[C@H]2C(=O)CC[C@@]3(O)[C@H]1C5 [naloxone]
effect on serum-induced catatonia (female ICR mice): reversed

Corticosterone equivalents, Experiment 1 [2]: 1.08 µg/mL
Corticosterone equivalents, Experiment 2 [2]: 1.42 µg/mL
% Inhibition of Specific Binding (HTCA; 50 pg/ml ACTH in FCS, Log10 Dilution -0.5): 73%
% Inhibition of Specific Binding (HTCA; 50 pg/ml ACTH in FCS, Log10 Dilution -1.0): 40%
% Inhibition of Specific Binding (HTCA; 50 pg/ml ACTH in FCS, Log10 Dilution -1.5): 44%
% Inhibition of Specific Binding (HTCA; 50 pg/ml ACTH in FCS, Log10 Dilution -2.0): 9%
% Inhibition of Specific Binding (HTCA; 50 pg/ml ACTH in FCS, Log10 Dilution -2.5): 1%
% Inhibition of Specific Binding (HTCA; 50 pg/ml ACTH in FCS, Log10 Dilution -3.0): 0%
% Inhibition of Specific Binding (HTCA; 50 pg/ml ACTH in FCS, Log10 Dilution -3.5): 0%
Log10 Dilution at 50% inhibition (HTCA; 50 pg/ml serum sample): -1.1
% Inhibition of Specific Binding (HTCA; 500 pg/ml ACTH in FCS, Log10 Dilution -0.5): 90%
% Inhibition of Specific Binding (HTCA; 500 pg/ml ACTH in FCS, Log10 Dilution -1.0): 77%
% Inhibition of Specific Binding (HTCA; 500 pg/ml ACTH in FCS, Log10 Dilution -1.5): 57%
% Inhibition of Specific Binding (HTCA; 500 pg/ml ACTH in FCS, Log10 Dilution -2.0): 53%
% Inhibition of Specific Binding (HTCA; 500 pg/ml ACTH in FCS, Log10 Dilution -2.5): 35%
% Inhibition of Specific Binding (HTCA; 500 pg/ml ACTH in FCS, Log10 Dilution -3.0): 32%
% Inhibition of Specific Binding (HTCA; 500 pg/ml ACTH in FCS, Log10 Dilution -3.5): 20%
Log10 Dilution at 50% inhibition (HTCA; 500 pg/ml serum sample): -2.0
Compound: ACTH: Synthetic ACTH, fragment 1-24, from Organon; unlabelled ACTH competitor in binding assays
effect on binding of anti-HTCA to affixed Y-1 cells [3]: blocked binding of the anti-HTCA in a dose dependent manner
